Experimental data taken from PMC12668310, “High‐Throughput Synthesis and Screening of a Cyanimide Library Identifies Selective Inhibitors of ISG15‐Specific Protease mUSP18” (Angewandte Chemie (International Ed. in English), 2025).
Read-outs that look alike come from different tables or passages of the source.

Target: T1, mUSP18 (Mus musculus, UniProt Q9WTV6)
T1 construct: (46-368); His-tag (N); made in house
T1 sequence (Q9WTV6 46-368): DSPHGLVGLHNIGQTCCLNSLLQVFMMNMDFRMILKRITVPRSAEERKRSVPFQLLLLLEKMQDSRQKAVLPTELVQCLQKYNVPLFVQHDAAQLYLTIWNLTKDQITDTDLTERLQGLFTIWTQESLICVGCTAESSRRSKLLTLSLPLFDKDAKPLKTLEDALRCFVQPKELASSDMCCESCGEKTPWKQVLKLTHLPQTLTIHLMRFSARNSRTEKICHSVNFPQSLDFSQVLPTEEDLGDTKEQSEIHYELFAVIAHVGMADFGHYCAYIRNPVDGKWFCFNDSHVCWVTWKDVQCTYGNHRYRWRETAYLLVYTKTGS
Experiment: High-throughput screening, ISG15ct-RhoMP, single dose 1.25 µM
Assay type: biochemical, murine

[1] = mUSP18 %inhibition, carboxylic acid (CA) building block alone, read-out: %inh CA only
[2] = mUSP18 %inhibition, carboxylic acid (CA) with coupling reagents DIC/HOBT, read-out: %inh CA + DIC/HOBT

inhibition at 1.25 µM [1] | inhibition at 1.25 µM [2] | inhibition of mUSP18 by individual CA's and coupling reagents (screened with and without DIC/HOBt) | %inh CA only (mUSP18 %inhibition, carboxylic acid (CA) building block alone) | %inh CA + DIC/HOBT (mUSP18 %inhibition, carboxylic acid (CA) with coupling reagents DIC/HOBT) | Structure (SMILES)
2.22% | 6.16% | – | – | – | Cc1cccc(C(=O)N2CCCCC2C(=O)O)n1 (centres unmarked) [CA152]
-4.58% | -15.1% | – | – | – | O=C1CC(C(=O)O)NC(=O)N1 (centres unmarked) [CA075]
2.56% | -3.79% | – | – | – | O=C(CC1(C(=O)O)CCCC1)N1CCOCC1 [CA332]
4.43% | 1.71% | – | – | – | CC1CC1C(=O)N1CCCCC1C(=O)O (centres unmarked) [CA145]
-0.32% | 0.72% | – | – | – | CC(C(=O)O)n1ccc(C2CC2)n1 (centres unmarked) [CA323]
5.65% | -4.55% | – | – | – | O=C(O)C1CC2C=CC1O2 (centres unmarked) [CA358]
2.77% | -1.69% | – | – | – | O=C(O)c1nc(N2CCOCC2)ncc1Cl [CA458]
3.05% | 5.82% | – | – | – | O=C(O)c1ccc(Cn2cc(Br)cn2)o1 [CA224]
6.04% | -8.39% | – | – | – | CCc1ccc(C(=O)N2CCC(C(=O)O)CC2)o1 [CA376]
8.69% | 12.3% | – | – | – | Cc1oc(Cn2cc(Br)cn2)cc1C(=O)O [CA156]
6.01% | 2.43% | – | – | – | O=C(O)c1ccnn1C1CCOCC1 [CA216]
-1.48% | -1.62% | – | – | – | COc1ccc(C(=O)O)cc1S(=O)(=O)NCCCN1CCOCC1 [CA326]
-5.44% | 4.89% | – | – | – | O=C(O)c1ccc(S(=O)(=O)N2CCCCCC2)cc1 [CA469]
8.23% | 4.28% | – | – | – | O=C(O)c1ccnc(N2CCOCC2)n1 [CA264]
4.86% | 3.56% | – | – | – | O=C(O)c1cc(S(=O)(=O)NCCCN2CCCC2=O)ccc1Cl [CA230]
4.39% | -0.81% | – | – | – | O=C(O)c1ccc(Cn2ccnn2)o1 [CA363]
-6.19% | 9.63% | – | – | – | O=C(O)c1ccc(F)c(S(=O)(=O)N2CCC2)c1 [CA305]

inhibition at 1.25 µM [1] | inhibition at 1.25 µM [2] | inhibition of mUSP18 by individual CA's and coupling reagents (screened with and without DIC/HOBt) | %inh CA only (mUSP18 %inhibition, carboxylic acid (CA) building block alone) | %inh CA + DIC/HOBT (mUSP18 %inhibition, carboxylic acid (CA) with coupling reagents DIC/HOBT) | Structure (SMILES)
1.15% | -2.8% | – | – | – | O=C(O)c1cc(C2CCC2)on1 [CA456]
12.1% | -2.66% | – | – | – | O=C(O)c1ccc(CN2CCOCC2)cc1 [CA187]
4.15% | 14.1% | – | – | – | O=C(O)c1ccc(Cl)c(N2CCCS2(=O)=O)c1 [CA281]
6.36% | 2.43% | – | – | – | O=C(O)C1CCN(C(=O)c2ccccn2)CC1 [CA242]
-1.15% | -11.3% | – | – | – | O=C(O)c1ccc(N2CCCC2)cc1F [CA064]
-2.57% | -12.6% | – | – | – | CC(=O)N1CCC(C(=O)O)CC1 [CA088]
0.19% | -11.3% | – | – | – | O=C(O)c1ccc(CBr)cc1 [CA027]
-3.03% | -7.52% | – | – | – | CC(=O)CCCC(=O)O [CA044]
-4.12% | -12.2% | – | – | – | O=C(O)C1CCCN1C(=O)C1CC1 (centres unmarked) [CA404]
-4.36% | -9.17% | – | – | – | Cn1nccc1[1C@@H]1C[1C@H]1C(=O)O [CA410]
4.45% | 8.32% | – | – | – | O=C(O)c1ccc(CN2CCCCCC2)s1 [CA279]
9.83% | 13.4% | – | – | – | CC1CCN(c2ncc(C(=O)O)s2)CC1 [CA172]
3.67% | -3.27% | – | – | – | COc1ccc(CN2CCC2C(=O)O)cc1 (centres unmarked) [CA312]
-0.68% | -7.73% | – | – | – | O=C(O)C(OC1CCOCC1)c1ccccc1 (centres unmarked) [CA405]
-1.88% | -17.1% | – | – | – | O=C(O)CN1CCOCC1 [CA074]
7.6% | -0.51% | – | – | – | O=C(O)c1nc(C2CC2)ncc1Br [CA338]

Second part, the molecule before the results:

Structure (SMILES) | inhibition at 1.25 µM [1] | inhibition at 1.25 µM [2] | inhibition of mUSP18 by individual CA's and coupling reagents (screened with and without DIC/HOBt) | %inh CA only (mUSP18 %inhibition, carboxylic acid (CA) building block alone) | %inh CA + DIC/HOBT (mUSP18 %inhibition, carboxylic acid (CA) with coupling reagents DIC/HOBT)
Cc1noc(C)c1Cc1ccc(C(=O)O)o1 [CA179] | 2.24% | 4.32% | – | – | –
CN1C(=O)CCC(C(=O)O)C1c1cccs1 (centres unmarked) [CA339] | 2.79% | -5.82% | – | – | –
O=C(O)Cc1ccc(OCc2ccccn2)cc1 [CA435] | -5.3% | -2.79% | – | – | –
O=C(O)c1cccn1Cc1ccccn1 [CA414] | -4.22% | -9% | – | – | –
CN(C(=O)c1cccs1)c1ccccc1C(=O)O [CA100] | 16.4% | 10.5% | – | – | –
O=C(O)CC1=NN(c2ncc(C(F)(F)F)cc2Cl)C(=O)C1 [CA193] | 5.93% | 4.27% | – | – | –
O=C(O)c1cccnc1Oc1ccccc1Br [CA395] | -7.15% | -4.5% | – | – | –
O=C(O)Cc1csc(-c2ccccc2)n1 [CA428] | -0.27% | -5.62% | – | – | –
O=C(NNc1ccc(C(=O)O)cc1)OCC1c2ccccc2-c2ccccc21 [CA035] | 9.05% | 23.4% | – | – | –
O=C(O)c1cccn1-c1c(Cl)cccc1Cl [CA302] | 0.53% | 98.1% | could inhibit mUSP18 | – | –
O=C(O)c1cc(-c2ccco2)on1 [CA223] | 2.35% | 4.1% | – | – | –
O=C(O)Cc1ccc(NS(=O)(=O)c2cccc(C(F)(F)F)c2)cc1 [CA467] | -0.52% | 2.94% | – | – | –
O=C(O)c1nccc2ccccc12 [CA030] | -2.62% | -9.45% | – | – | –
Cc1sc(-n2cnnn2)c(C(=O)O)c1C [CA327] | -5.75% | 4.6% | – | – | –
O=C(O)c1csc(-c2ccccn2)n1 [CA190] | 9.48% | 6.54% | – | – | –
O=C(O)C(F)(F)n1cc(-c2ccccc2)nn1 [CA262] | 8.22% | 3.17% | – | – | –
O=C(O)Cc1coc(-c2cccs2)n1 [CA423] | 8.99% | -4.85% | – | – | –
O=C(O)c1cnn(-c2cccc(Br)c2)c1 [CA240] | 7.83% | 6.83% | – | – | –
Cc1cc(C)cc(N(CCC(=O)O)S(=O)(=O)c2ccc(Cl)cc2)c1 [CA381] | 1.09% | -13.7% | – | – | –
O=C(O)c1ccc(COc2ccccc2Br)cc1 [CA207] | -2.79% | 10.7% | – | – | –
O=C(O)c1csc(-c2cnc[nH]2)n1 [CA238] | 6.66% | -0.05% | – | – | –
Cc1cccc(COc2cccc(C(=O)O)c2)c1 [CA465] | 2.43% | 2.72% | – | – | –
O=C(O)Cc1csc(NS(=O)(=O)c2ccccc2)n1 [CA421] | -4.79% | -0.58% | – | – | –
O=C(O)c1ccccc1OCc1cccs1 [CA407] | -5.56% | 33.9% | – | – | –

Structure (SMILES) | inhibition at 1.25 µM [1] | inhibition at 1.25 µM [2] | inhibition of mUSP18 by individual CA's and coupling reagents (screened with and without DIC/HOBt) | %inh CA only (mUSP18 %inhibition, carboxylic acid (CA) building block alone) | %inh CA + DIC/HOBT (mUSP18 %inhibition, carboxylic acid (CA) with coupling reagents DIC/HOBT)
CC(C)(C)OC(=O)N[C@@H](Cc1cn(-c2ccc([N+](=O)[O-])cc2[N+](=O)[O-])cn1)C(=O)O [CA022] | -4.55% | -8.26% | – | – | –
O=C(O)c1cccc(B(O)O)c1 [CA057] | -5.9% | -16.2% | – | – | –
O=C(O)c1ccc2cc3ccccc3cc2c1 [CA068] | 6.72% | 2.22% | – | – | –
Cc1cc(COc2ccc(C(=O)O)cc2Br)no1 [CA257] | 1.45% | 15.8% | – | – | –
Cc1nc(-c2c(C)c(C)nn(C)c2=O)sc1C(=O)O [CA153] | 1.24% | 3.87% | – | – | –
O=C(O)Cc1coc(-c2ccccc2)n1 [CA136] | 8.08% | 12.8% | – | – | –
O=C(O)c1cc(-c2ccc(Cl)s2)[nH]n1 [CA148] | 7.78% | 9.65% | – | – | –
COc1ccc(C(=O)O)cc1S(=O)(=O)NCCc1ccccn1 [CA259] | 13.5% | 2.38% | – | – | –
CCOc1oc(-c2ccco2)nc1C(=O)O [CA329] | 14.4% | 1% | – | – | –
O=C(O)c1cn(C2CCC2)nn1 [CA114] | 23.9% | 9% | – | – | –
O=C(O)c1ccc(B(O)O)cc1 [CA020] | -7.88% | -9.11% | – | – | –
COC1CC(C(=O)O)N(C(=O)OCc2ccccc2)C1 (centres unmarked) [CA464] | -0.15% | -1.5% | – | – | –
Cc1noc(-c2ccc(C(=O)O)cc2)n1 [CA328] | -3.57% | 6.75% | – | – | –
O=C(O)c1cccc(-c2cnco2)c1 [CA208] | 3.78% | 11.1% | – | – | –
CC1=NN(c2cccc(Br)c2)C(=O)C1CC(=O)O (centres unmarked) [CA446] | -10.1% | 26.8% | – | – | –
O=C(O)c1ccc(-n2ncc(Cl)c(Cl)c2=O)cc1 [CA186] | 20.6% | 9.85% | – | – | –
O=C(O)c1cnn(Cn2cc(Cl)cn2)c1 [CA321] | -3.47% | 1.28% | – | – | –
O=C(O)c1ccc(Cn2cncn2)cc1 [CA243] | 6.44% | 2.23% | – | – | –
CN(C)c1ccc(C(=O)O)cc1 [CA062] | -0.0145% | 33.7% | – | – | –
O=C(O)c1ccc(-c2cccs2)[nH]c1=O [CA284] | 9.12% | -3.37% | – | – | –
Cc1nn(-c2ccc(C(F)(F)F)cn2)c(C)c1CC(=O)O [CA253] | 3.16% | 9.05% | – | – | –
CN1C(=O)C[C@@H](C(=O)O)[C@@H]1c1cccnc1 [CA042] | – | – | – | 0.50% | -12.12%
COc1cc(CC(=O)O)ccc1O [CA050] | -1.29% | -15.5% | – | – | –
